Measurements: patent publication US9502658B2, “Fullerene derivatives and related materials, methods, and devices” (Nano-C, Inc., priority 2013, dated 2016)
Values after ≈ are worked out from the molar mass of the structure shown.

Assay: Solubility in o-dichlorobenzene by UV-vis absorbance at 360 nm
Settings: for solubility in o-dichlorobenzene: room temperature (about 22° C.)

| Structure (SMILES) | solubility in o-dichlorobenzene | solubility in common organic solvents (in words, compared to the fullerenes according to the invention) |
| --- | --- | --- |
| CCCCC1c2ccccc2C(CCCC)C23c4c5c6c7c8c9c(c%10c%11c2c2c4c4c%12c5c5c6c6c8c8c%13c9c9c%10c%10c%11c%11c2c2c4c4c%12c%12c5c5c6c8c6c8c%13c9c9c%10c%10c%11c2c2c4c4c%12c5c6c5c8c9c%10c2c45)C713 (centres unmarked) [Fullerene 3] | 9.3 mg/mL (≈ 9.92 mM) | – |
| CCCCCCC1c2ccccc2C(CCCCCC)C23c4c5c6c7c8c9c(c%10c%11c2c2c4c4c%12c5c5c6c6c8c8c%13c9c9c%10c%10c%11c%11c2c2c4c4c%12c%12c5c5c6c8c6c8c%13c9c9c%10c%10c%11c2c2c4c4c%12c5c6c5c8c9c%10c2c45)C713 (centres unmarked) [Fullerene 4] | 45 mg/mL (≈ 45.3 mM) | – |
| CCCCCCCC1c2ccccc2C(CCCCCCC)C23c4c5c6c7c8c9c(c%10c%11c2c2c4c4c%12c5c5c6c6c8c8c%13c9c9c%10c%10c%11c%11c2c2c4c4c%12c%12c5c5c6c8c6c8c%13c9c9c%10c%10c%11c2c2c4c4c%12c5c6c5c8c9c%10c2c45)C713 (centres unmarked) [Fullerene 5] | 20 mg/mL (≈ 19.6 mM) | – |
| c1ccc2c(c1)CC13c4c5c6c7c8c9c(c%10c%11c1c1c%12c4c4c%13c5c5c7c7c8c8c%14c9c%10c9c%10c%11c1c1c%11c%12c4c4c%12c%13c5c5c7c7c8c8c%14c9c9c%10c1c1c%11c4c4c%12c5c7c5c8c9c1c45)C63C2 (centres unmarked) [oQDM-C60, reference compound] | 5.8 mg/mL (≈ 7.03 mM) | lower solubility |
